# e = 2'-O-(2-methoxyethyl) (MOE); d = 2'-deoxy (DNA)
# Tested on: Drosha mRNA
# Assay: Antisense activity by RT-qPCR, Drosha, A431 cells
# Type: cell-based, Human
# Description: A431 cells were grown at 10,000 cells per well and pre-treated with a variety of growth factors to determine if the addition of exogenous growth factors affects antisense activity or uptake of modified antisense oligonucleotides in a cell. The growth factors used were EGF, insulin growth factor (IGF), transforming growth factor (TGF), […] (VEGF), hepatocyte growth factor (HGF), platelet growth factor (PGF) and fibroblasts growth factor (FGF). To test antisense activity, cells were treated for 4 hours with a growth factor or vehicle alone, and then treated with compound no. 25690 (complementary to Drosha), compound no. 395254 (complementary to Malat1), or vehicle alone. RNA was isolated from the cells and Drosha or Malat1 RNA levels were measured by RT-qPCR. Human primer probe set 13816 (forward sequence […], designated herein as SEQ ID NO: 3; reverse sequence […], designated herein as SEQ ID NO: 4; probe sequence […], designated herein as SEQ ID NO: 5) was used to measure Drosha mRNA levels and primer probe set RTS2736 (forward sequence […], designated herein as SEQ ID NO: 6; reverse sequence […], designated herein as SEQ ID NO: 7; probe sequence TGCCACATCGCCACCCCGT, designated herein as SEQ ID NO: 8) was used to measure Malat1 RNA levels. Drosha and Malat1 RNA levels were normalized to total RNA content, as measured by RIBOGREEN®. Results are presented in the tables below as normalized RNA levels, relative to untreated control cells.
# A431 cells were treated with EGF or TGF at 200 ng/mL in the presence or absence of 1 μM of the EGFR tyrosine kinase inhibitor PD174265. The cells were then treated with compound no. 25690 or compound no. 395254 as in Example 8. Total RNA was isolated and analyzed by RT-qPCR, as in Example 8.
# Following siRNA treatment, cells were treated with compound no. 25690 or compound no. 395254 in the presence or absence of EGF. 16 hours after treatment with a PS-ASO with or without EGF, cells were harvested, and RNA levels were analyzed via RT-qPCR as in Example 8.
sequence,measurement,setting,value
"AGGAAGGAAGCTGGCGATCT (sugars from the 5' end e5 d10 e5, all phosphorothioate, methylation of C not given here) [compound 25690]",Drosha mRNA (% Control),"19.5 nM, Control",100.0 % Control
same,Drosha mRNA (% Control),"19.5 nM, EGF",100.0 % Control
same,Drosha mRNA (% Control),"19.5 nM, TGF",100.0 % Control
same,Drosha mRNA (% Control),"39 nM, Control",104.3 % Control
same,Drosha mRNA (% Control),"39 nM, EGF",98.0 % Control
same,Drosha mRNA (% Control),"39 nM, TGF",95.1 % Control
same,Drosha mRNA (% Control),"78 nM, Control",100.3 % Control
same,Drosha mRNA (% Control),"78 nM, EGF",98.0 % Control
same,Drosha mRNA (% Control),"78 nM, TGF",80.2 % Control
same,Drosha mRNA (% Control),"97.7 nM, Control",100.0 % Control
same,Drosha mRNA (% Control),"97.7 nM, Control Luciferase siRNA",100.0 % Control
same,Drosha mRNA (% Control),"97.7 nM, Control Luciferase siRNA, Table 26",100.0 % Control
same,Drosha mRNA (% Control),"97.7 nM, Control luciferase + EGF",100.0 % Control
same,Drosha mRNA (% Control),"97.7 nM, Control, Table 20",100.0 % Control
same,Drosha mRNA (% Control),"97.7 nM, EGF",100.0 % Control
same,Drosha mRNA (% Control),"97.7 nM, EGF+PD174265",100.0 % Control
same,Drosha mRNA (% Control),"97.7 nM, EGFR siRNA-1",100.0 % Control
same,Drosha mRNA (% Control),"97.7 nM, EGFR siRNA-2",100.0 % Control
same,Drosha mRNA (% Control),"97.7 nM, EGFR siRNA-2 + EGF",100.0 % Control
same,Drosha mRNA (% Control),"97.7 nM, EGFR siRNA-2, Table 26",100.0 % Control
same,Drosha mRNA (% Control),"97.7 nM, TGF",100.0 % Control
same,Drosha mRNA (% Control),"97.7 nM, TGF+PD174265",100.0 % Control
same,Drosha mRNA (% Control),"156.25 nM, Control",103.8 % Control
same,Drosha mRNA (% Control),"156.25 nM, EGF",70.7 % Control
same,Drosha mRNA (% Control),"156.25 nM, TGF",64.6 % Control
same,Drosha mRNA (% Control),"195 nM, Control",110.0 % Control
same,Drosha mRNA (% Control),"195 nM, Control Luciferase siRNA",81.4 % Control
same,Drosha mRNA (% Control),"195 nM, Control Luciferase siRNA, Table 26",99.2 % Control
same,Drosha mRNA (% Control),"195 nM, Control luciferase + EGF",110.2 % Control
same,Drosha mRNA (% Control),"195 nM, Control, Table 20",110.0 % Control
same,Drosha mRNA (% Control),"195 nM, EGF",98.2 % Control
same,Drosha mRNA (% Control),"195 nM, EGF+PD174265",102.4 % Control
same,Drosha mRNA (% Control),"195 nM, EGFR siRNA-1",103.0 % Control
same,Drosha mRNA (% Control),"195 nM, EGFR siRNA-2",88.0 % Control
same,Drosha mRNA (% Control),"195 nM, EGFR siRNA-2 + EGF",107.2 % Control
same,Drosha mRNA (% Control),"195 nM, EGFR siRNA-2, Table 26",105.2 % Control
same,Drosha mRNA (% Control),"195 nM, TGF",95.2 % Control
same,Drosha mRNA (% Control),"195 nM, TGF+PD174265",108.0 % Control
same,Drosha mRNA (% Control),"312.5 nM, Control",92.7 % Control
same,Drosha mRNA (% Control),"312.5 nM, EGF",72.8 % Control
same,Drosha mRNA (% Control),"312.5 nM, TGF",61.1 % Control
same,Drosha mRNA (% Control),"391 nM, Control",99.7 % Control
same,Drosha mRNA (% Control),"391 nM, Control Luciferase siRNA",67.0 % Control
same,Drosha mRNA (% Control),"391 nM, Control Luciferase siRNA, Table 26",100.0 % Control
same,Drosha mRNA (% Control),"391 nM, Control luciferase + EGF",100.0 % Control
same,Drosha mRNA (% Control),"391 nM, Control, Table 20",99.3 % Control
same,Drosha mRNA (% Control),"391 nM, EGF",89.4 % Control
same,Drosha mRNA (% Control),"391 nM, EGF+PD174265",103.3 % Control
same,Drosha mRNA (% Control),"391 nM, EGFR siRNA-1",78.9 % Control
same,Drosha mRNA (% Control),"391 nM, EGFR siRNA-2",83.1 % Control
same,Drosha mRNA (% Control),"391 nM, EGFR siRNA-2, Table 26",100.0 % Control
same,Drosha mRNA (% Control),"391 nM, TGF",85.2 % Control
same,Drosha mRNA (% Control),"391 nM, TGF+PD174265",91.2 % Control
same,Drosha mRNA (% Control),"625 nM, Control",90.9 % Control
same,Drosha mRNA (% Control),"625 nM, EGF",57.2 % Control
same,Drosha mRNA (% Control),"625 nM, TGF",50.8 % Control
same,Drosha mRNA (% Control),"781 nM, Control",88.4 % Control
same,Drosha mRNA (% Control),"781 nM, Control Luciferase siRNA",56.6 % Control
same,Drosha mRNA (% Control),"781 nM, Control Luciferase siRNA, Table 26",77.5 % Control
same,Drosha mRNA (% Control),"781 nM, Control luciferase + EGF",60.8 % Control
same,Drosha mRNA (% Control),"781 nM, Control, Table 20",87.2 % Control
same,Drosha mRNA (% Control),"781 nM, EGF",81.4 % Control
same,Drosha mRNA (% Control),"781 nM, EGF+PD174265",83.6 % Control
same,Drosha mRNA (% Control),"781 nM, EGFR siRNA-1",62.3 % Control
same,Drosha mRNA (% Control),"781 nM, EGFR siRNA-2",64.8 % Control
same,Drosha mRNA (% Control),"781 nM, EGFR siRNA-2 + EGF",98.4 % Control
same,Drosha mRNA (% Control),"781 nM, EGFR siRNA-2, Table 26",89.8 % Control
same,Drosha mRNA (% Control),"781 nM, TGF",67.2 % Control
same,Drosha mRNA (% Control),"781 nM, TGF+PD174265",87.2 % Control
same,Drosha mRNA (% Control),"1250 nM, Control",75.7 % Control
same,Drosha mRNA (% Control),"1250 nM, EGF",52.8 % Control
same,Drosha mRNA (% Control),"1250 nM, TGF",43.4 % Control
same,Drosha mRNA (% Control),"1563 nM, Control",83.2 % Control
same,Drosha mRNA (% Control),"1563 nM, Control Luciferase siRNA",49.2 % Control
same,Drosha mRNA (% Control),"1563 nM, Control Luciferase siRNA, Table 26",70.2 % Control
same,Drosha mRNA (% Control),"1563 nM, Control luciferase + EGF",57.6 % Control
same,Drosha mRNA (% Control),"1563 nM, Control, Table 20",76.3 % Control
same,Drosha mRNA (% Control),"1563 nM, EGF",74.7 % Control
same,Drosha mRNA (% Control),"1563 nM, EGF+PD174265",68.9 % Control
same,Drosha mRNA (% Control),"1563 nM, EGFR siRNA-1",56.0 % Control
same,Drosha mRNA (% Control),"1563 nM, EGFR siRNA-2",61.4 % Control
same,Drosha mRNA (% Control),"1563 nM, EGFR siRNA-2 + EGF",79.4 % Control
same,Drosha mRNA (% Control),"1563 nM, EGFR siRNA-2, Table 26",80.3 % Control
same,Drosha mRNA (% Control),"1563 nM, TGF",65.9 % Control
same,Drosha mRNA (% Control),"1563 nM, TGF+PD174265",78.7 % Control
same,Drosha mRNA (% Control),"2500 nM, Control",63.6 % Control
same,Drosha mRNA (% Control),"2500 nM, EGF",42.8 % Control
same,Drosha mRNA (% Control),"2500 nM, TGF",40.1 % Control
same,Drosha mRNA (% Control),"3125 nM, Control",66.6 % Control
same,Drosha mRNA (% Control),"3125 nM, Control Luciferase siRNA",40.7 % Control
same,Drosha mRNA (% Control),"3125 nM, Control Luciferase siRNA, Table 26",61.6 % Control
same,Drosha mRNA (% Control),"3125 nM, Control luciferase + EGF",40.8 % Control
same,Drosha mRNA (% Control),"3125 nM, Control, Table 20",67.2 % Control
same,Drosha mRNA (% Control),"3125 nM, EGF",55.9 % Control
same,Drosha mRNA (% Control),"3125 nM, EGF+PD174265",62.7 % Control
same,Drosha mRNA (% Control),"3125 nM, EGFR siRNA-1",51.4 % Control
same,Drosha mRNA (% Control),"3125 nM, EGFR siRNA-2",54.6 % Control
same,Drosha mRNA (% Control),"3125 nM, EGFR siRNA-2 + EGF",75.4 % Control
same,Drosha mRNA (% Control),"3125 nM, EGFR siRNA-2, Table 26",70.6 % Control
same,Drosha mRNA (% Control),"3125 nM, TGF",47.2 % Control
same,Drosha mRNA (% Control),"3125 nM, TGF+PD174265",64.2 % Control
same,Drosha mRNA (% Control),"5000 nM, Control",47.6 % Control
same,Drosha mRNA (% Control),"5000 nM, EGF",33.0 % Control
same,Drosha mRNA (% Control),"5000 nM, TGF",31.9 % Control

# Source: patent US20200407717A1, “METHODS OF MODULATING ANTISENSE ACTIVITY” (Ionis Pharmaceuticals, Inc., priority 2018, published 2020)
